What was measured:
DLK/MAP3K12 = molecular target: T1, DLK/MAP3K12 (Homo sapiens, UniProt Q12852); conditions: 1 μM; Run 1, Run 2
T1 sequence (Q12852 1-859): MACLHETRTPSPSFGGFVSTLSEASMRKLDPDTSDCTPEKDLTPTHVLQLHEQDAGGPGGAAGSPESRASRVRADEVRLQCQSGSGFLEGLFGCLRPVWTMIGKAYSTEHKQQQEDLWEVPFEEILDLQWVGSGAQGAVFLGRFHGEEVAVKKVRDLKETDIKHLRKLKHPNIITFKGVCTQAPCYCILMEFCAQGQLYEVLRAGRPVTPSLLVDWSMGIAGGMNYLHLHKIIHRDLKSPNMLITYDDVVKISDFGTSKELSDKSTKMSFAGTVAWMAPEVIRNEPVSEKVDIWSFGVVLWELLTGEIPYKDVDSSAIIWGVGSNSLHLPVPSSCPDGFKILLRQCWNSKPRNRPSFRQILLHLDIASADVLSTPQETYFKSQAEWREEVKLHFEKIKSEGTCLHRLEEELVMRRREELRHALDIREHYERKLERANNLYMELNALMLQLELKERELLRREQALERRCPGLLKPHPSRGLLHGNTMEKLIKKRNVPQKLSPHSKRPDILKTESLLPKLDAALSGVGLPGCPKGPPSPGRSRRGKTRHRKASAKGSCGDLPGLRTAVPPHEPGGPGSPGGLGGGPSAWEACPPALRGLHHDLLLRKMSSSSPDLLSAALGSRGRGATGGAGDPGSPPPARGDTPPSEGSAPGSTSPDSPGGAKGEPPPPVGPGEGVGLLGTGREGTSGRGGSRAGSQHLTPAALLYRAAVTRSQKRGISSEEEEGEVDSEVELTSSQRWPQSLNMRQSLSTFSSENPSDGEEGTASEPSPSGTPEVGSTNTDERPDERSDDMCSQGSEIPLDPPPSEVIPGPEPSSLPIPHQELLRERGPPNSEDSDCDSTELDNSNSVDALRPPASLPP

MEK3 = molecular target: T2, MEK3 (Homo sapiens, UniProt P46734); conditions: 1 μM; Run 1, Run 2
T2 sequence (P46734 1-347): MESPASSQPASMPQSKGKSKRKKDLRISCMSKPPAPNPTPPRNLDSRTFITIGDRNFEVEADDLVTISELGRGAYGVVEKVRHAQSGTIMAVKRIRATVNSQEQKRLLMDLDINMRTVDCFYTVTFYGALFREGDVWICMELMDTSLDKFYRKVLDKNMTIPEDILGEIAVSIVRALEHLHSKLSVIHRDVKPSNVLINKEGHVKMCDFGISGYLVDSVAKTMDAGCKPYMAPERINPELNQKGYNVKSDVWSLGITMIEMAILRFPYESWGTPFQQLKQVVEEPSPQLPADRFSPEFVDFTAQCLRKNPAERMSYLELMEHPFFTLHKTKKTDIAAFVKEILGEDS

MST4 = MST4 (Homo sapiens, UniProt Q9P289); conditions: 1 μM; Run 1, Run 2
MST4, sequence (Q9P289 whole entry): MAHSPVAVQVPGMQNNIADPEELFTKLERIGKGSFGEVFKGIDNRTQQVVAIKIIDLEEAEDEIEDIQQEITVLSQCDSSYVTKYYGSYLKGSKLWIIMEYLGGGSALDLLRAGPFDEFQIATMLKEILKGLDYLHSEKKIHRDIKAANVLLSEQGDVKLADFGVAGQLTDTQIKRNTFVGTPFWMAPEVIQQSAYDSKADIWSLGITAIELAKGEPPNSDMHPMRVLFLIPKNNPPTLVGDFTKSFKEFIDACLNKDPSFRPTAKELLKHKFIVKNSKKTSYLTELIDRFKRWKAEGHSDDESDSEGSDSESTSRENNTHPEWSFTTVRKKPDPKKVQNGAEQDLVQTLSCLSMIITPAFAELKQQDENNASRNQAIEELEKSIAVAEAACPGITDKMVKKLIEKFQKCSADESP

PKN2/PRK2 = PKN2/PRK2 (Homo sapiens, UniProt Q16513); conditions: 1 μM; Run 1, Run 2
PKN2/PRK2, sequence (Q16513 whole entry): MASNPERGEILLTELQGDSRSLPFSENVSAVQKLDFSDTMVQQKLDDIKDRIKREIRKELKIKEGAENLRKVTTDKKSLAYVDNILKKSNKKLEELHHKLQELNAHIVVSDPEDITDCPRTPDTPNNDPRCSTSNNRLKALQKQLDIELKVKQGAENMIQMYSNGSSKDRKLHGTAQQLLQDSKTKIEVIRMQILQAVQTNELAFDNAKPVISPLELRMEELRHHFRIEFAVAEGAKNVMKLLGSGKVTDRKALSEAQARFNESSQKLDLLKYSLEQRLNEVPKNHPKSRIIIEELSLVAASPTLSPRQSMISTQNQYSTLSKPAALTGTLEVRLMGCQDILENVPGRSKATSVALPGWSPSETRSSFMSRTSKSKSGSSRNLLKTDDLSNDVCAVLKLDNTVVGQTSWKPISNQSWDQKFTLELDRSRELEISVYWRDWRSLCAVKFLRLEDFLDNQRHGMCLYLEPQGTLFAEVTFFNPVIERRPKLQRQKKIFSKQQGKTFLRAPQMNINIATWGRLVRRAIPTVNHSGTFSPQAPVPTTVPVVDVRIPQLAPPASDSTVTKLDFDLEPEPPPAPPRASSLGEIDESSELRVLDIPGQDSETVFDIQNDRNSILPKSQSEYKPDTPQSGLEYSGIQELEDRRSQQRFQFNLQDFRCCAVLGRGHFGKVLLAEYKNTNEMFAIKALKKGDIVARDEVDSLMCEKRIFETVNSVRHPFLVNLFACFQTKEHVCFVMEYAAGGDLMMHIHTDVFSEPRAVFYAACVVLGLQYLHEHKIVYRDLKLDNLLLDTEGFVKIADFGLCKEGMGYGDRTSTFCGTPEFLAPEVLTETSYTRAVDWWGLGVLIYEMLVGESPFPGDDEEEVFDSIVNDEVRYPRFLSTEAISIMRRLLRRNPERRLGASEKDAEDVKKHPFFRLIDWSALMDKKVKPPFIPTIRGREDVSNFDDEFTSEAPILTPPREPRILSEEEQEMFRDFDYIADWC

BRSK2 = molecular target: T3, BRSK2 (Homo sapiens, UniProt Q8IWQ3); experiment: biochemical; conditions: read-out: % enzyme activity, 1 μM; Run 1, Run 2
T3 sequence (Q8IWQ3 1-736): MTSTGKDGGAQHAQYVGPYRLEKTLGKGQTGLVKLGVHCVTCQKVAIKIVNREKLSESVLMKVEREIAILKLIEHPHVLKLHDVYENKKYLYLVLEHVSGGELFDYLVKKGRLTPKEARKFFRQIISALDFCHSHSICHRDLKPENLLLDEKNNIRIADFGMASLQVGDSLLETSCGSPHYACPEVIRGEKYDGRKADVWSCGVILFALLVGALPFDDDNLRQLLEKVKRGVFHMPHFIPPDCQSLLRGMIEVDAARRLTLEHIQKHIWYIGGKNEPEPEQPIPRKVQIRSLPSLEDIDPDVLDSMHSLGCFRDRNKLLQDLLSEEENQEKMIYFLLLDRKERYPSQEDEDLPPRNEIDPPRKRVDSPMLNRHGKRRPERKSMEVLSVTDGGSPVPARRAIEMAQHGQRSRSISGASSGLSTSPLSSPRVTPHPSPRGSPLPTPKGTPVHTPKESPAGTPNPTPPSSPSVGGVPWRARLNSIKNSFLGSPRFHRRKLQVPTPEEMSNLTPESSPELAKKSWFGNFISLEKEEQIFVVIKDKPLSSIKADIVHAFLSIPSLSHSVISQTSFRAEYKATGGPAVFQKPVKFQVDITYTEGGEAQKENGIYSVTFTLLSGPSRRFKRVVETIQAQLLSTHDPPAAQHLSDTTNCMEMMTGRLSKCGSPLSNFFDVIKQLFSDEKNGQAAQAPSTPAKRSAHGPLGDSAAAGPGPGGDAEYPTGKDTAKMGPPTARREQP

CDC7/DBF4 = CDC7/DBF4 (Homo sapiens, UniProt O00311); experiment: biochemical; conditions: read-out: % enzyme activity, 1 μM; Run 1, Run 2
CDC7/DBF4, sequence (O00311 whole entry): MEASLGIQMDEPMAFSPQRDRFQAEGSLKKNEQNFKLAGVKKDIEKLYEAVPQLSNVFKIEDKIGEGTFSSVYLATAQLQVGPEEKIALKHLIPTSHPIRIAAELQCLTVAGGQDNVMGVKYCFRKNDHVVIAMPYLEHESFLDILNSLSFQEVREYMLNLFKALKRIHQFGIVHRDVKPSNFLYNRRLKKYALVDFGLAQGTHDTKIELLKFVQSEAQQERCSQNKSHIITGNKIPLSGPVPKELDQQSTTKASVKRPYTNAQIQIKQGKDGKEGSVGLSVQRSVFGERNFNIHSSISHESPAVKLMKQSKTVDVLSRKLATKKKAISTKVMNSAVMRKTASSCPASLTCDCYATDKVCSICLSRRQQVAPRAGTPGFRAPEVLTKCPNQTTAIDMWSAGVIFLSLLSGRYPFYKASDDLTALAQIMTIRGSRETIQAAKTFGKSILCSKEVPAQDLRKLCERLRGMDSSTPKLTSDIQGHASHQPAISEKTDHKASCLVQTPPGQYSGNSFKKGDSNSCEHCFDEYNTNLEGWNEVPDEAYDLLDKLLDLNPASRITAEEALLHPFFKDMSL
CDC7/DBF4, sequence (Q9UBU7 whole entry partner): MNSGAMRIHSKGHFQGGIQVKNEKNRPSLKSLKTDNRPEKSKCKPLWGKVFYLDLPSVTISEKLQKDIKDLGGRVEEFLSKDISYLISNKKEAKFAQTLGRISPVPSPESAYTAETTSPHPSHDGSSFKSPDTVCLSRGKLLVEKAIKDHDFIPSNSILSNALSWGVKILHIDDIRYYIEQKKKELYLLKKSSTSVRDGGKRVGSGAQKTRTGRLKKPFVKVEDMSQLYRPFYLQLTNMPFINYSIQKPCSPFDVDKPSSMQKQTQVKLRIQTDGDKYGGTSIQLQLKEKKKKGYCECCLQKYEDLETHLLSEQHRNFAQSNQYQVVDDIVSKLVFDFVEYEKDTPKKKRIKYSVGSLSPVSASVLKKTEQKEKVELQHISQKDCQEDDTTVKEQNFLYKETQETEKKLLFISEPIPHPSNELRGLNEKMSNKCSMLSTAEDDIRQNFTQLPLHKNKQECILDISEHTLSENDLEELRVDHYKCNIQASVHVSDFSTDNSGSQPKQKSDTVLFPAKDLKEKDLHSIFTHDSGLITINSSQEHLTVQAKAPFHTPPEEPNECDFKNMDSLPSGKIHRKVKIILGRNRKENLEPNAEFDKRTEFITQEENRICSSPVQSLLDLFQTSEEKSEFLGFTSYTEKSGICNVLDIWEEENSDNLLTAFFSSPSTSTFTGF

ERK7/MAPK15 = molecular target: T4, ERK7/MAPK15 (Homo sapiens, UniProt Q8TD08); experiment: biochemical; conditions: read-out: % enzyme activity, 1 μM; Run 1, Run 2
T4 sequence (Q8TD08 1-544): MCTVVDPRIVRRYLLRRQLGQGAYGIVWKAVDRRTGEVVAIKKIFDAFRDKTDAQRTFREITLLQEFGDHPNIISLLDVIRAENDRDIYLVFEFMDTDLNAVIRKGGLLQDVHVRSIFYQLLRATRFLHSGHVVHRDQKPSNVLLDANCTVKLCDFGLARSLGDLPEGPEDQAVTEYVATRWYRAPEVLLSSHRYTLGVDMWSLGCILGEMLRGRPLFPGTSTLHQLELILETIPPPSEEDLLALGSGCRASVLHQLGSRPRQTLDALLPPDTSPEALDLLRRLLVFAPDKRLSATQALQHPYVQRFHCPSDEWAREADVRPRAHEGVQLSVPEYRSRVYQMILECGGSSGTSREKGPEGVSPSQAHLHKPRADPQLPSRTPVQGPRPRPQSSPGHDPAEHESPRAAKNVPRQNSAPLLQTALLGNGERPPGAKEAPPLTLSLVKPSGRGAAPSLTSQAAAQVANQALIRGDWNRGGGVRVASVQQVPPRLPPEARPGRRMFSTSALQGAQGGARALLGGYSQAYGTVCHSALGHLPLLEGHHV

MLK2/MAP3K10 = MLK2/MAP3K10 (Homo sapiens, UniProt Q02779); experiment: biochemical; conditions: read-out: % enzyme activity, 1 μM; Run 1, Run 2
MLK2/MAP3K10, sequence (Q02779 whole entry): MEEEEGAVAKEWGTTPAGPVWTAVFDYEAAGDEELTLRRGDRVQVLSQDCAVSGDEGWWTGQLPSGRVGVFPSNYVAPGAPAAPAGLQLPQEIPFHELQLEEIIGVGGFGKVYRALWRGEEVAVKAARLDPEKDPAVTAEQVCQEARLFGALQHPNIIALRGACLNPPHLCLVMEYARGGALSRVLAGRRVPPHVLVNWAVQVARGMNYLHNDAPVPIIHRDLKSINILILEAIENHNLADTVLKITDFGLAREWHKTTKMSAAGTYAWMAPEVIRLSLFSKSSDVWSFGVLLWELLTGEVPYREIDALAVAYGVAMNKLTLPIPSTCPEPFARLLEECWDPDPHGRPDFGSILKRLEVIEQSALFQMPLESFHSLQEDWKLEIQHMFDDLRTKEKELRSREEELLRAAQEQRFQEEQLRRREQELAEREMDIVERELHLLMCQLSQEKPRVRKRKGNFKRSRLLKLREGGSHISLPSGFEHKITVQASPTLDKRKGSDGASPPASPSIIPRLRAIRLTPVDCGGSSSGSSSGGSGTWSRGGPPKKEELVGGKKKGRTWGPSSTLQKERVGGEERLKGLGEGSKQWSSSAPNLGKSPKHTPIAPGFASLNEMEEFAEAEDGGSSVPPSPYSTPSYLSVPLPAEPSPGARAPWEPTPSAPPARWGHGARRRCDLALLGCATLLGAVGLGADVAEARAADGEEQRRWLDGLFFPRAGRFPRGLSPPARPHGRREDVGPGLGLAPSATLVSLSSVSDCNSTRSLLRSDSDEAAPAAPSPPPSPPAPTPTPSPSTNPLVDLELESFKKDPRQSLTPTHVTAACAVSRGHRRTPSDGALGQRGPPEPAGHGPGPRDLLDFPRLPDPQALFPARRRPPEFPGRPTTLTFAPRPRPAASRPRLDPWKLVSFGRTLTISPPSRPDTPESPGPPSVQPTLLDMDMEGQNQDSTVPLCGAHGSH

PKAcb = PKAcb (Homo sapiens, UniProt P22694); experiment: biochemical; conditions: read-out: % enzyme activity, 1 μM; Run 1, Run 2
TRKA = TRKA (Homo sapiens, UniProt P04629); experiment: biochemical; conditions: read-out: % enzyme activity, 1 μM; Run 1, Run 2
TRKA, sequence (P04629 33-796): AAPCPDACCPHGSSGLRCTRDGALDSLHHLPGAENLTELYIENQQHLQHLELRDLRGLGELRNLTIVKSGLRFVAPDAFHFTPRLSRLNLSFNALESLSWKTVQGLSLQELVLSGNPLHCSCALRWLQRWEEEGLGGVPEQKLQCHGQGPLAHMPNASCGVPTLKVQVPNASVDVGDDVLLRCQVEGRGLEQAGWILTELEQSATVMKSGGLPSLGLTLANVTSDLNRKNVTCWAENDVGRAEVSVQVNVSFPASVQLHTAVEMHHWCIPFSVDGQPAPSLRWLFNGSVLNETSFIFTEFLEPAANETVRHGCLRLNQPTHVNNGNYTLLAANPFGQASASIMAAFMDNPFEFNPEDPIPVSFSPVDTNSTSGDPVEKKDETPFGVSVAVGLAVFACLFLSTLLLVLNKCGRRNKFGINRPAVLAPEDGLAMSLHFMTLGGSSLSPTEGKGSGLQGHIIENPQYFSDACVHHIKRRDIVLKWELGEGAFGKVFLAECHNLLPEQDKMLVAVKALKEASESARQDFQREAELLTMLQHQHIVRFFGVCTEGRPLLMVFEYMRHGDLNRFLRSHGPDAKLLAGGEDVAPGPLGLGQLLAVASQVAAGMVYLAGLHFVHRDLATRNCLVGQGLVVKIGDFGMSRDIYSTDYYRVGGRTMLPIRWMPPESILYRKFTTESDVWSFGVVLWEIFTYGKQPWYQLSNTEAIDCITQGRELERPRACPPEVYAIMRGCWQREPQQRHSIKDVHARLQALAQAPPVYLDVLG

SMILES | CYP inhibition (CYP1A2) [µM] | % enzyme activity (DLK/MAP3K12) [%] | % enzyme activity (MEK3) [%] | % enzyme activity (MST4) [%] | % enzyme activity (PKN2/PRK2) [%] | remaining activity at 1 µM (BRSK2) [%] | remaining activity at 1 µM (CDC7/DBF4) [%] | remaining activity at 1 µM (ERK7/MAPK15) [%] | remaining activity at 1 µM (MLK2/MAP3K10) [%] | remaining activity at 1 µM (PKAcb) [%] | remaining activity at 1 µM (TRKA) [%]
COc1cc(-c2cncc(-c3ccc(N4CCN(C)CC4)cc3)c2C)cc(F)c1C(N)=O [Compound 26a, 2-Fluoro-6-methoxy-4-(4-methyl-5-(4-(4-methylpiperazin-1-yl)phenyl)pyridin-3-yl)benzamide] | > 50 | 91.76 | 100.94 | 85.32 | 91.84 | 61.3 | 92.2 | 86.8 | 86.4 | 96.2 | 91.8
COc1cc(-c2cncc(-c3ccc(N4C[C@@H](C)N(C)[C@@H](C)C4)cc3)c2C)cc(F)c1C(N)=O [Compound 26c, 2-Fluoro-6-methoxy-4-(4-methyl-5-(4-((3R,5S)-3,4,5-trimethylpiperazin-1-yl)phenyl)pyridin-3-yl)benzamide] | > 50 | 97.93 | 101.33 | 90.97 | 95.77 | 77.9 | 94.2 | 98.3 | 98.5 | 97.9 | 95.2

Source: article PMC8213057, “Targeting ALK2: An Open Science Approach to Developing Therapeutics for the Treatment of Diffuse Intrinsic Pontine Glioma” (Journal of Medicinal Chemistry, 2020)
